Data: patent US9012475B2, “Method for enhancing anti-tumor effect of a microtubule-targeting drug, and a method for treatment of tumor” (Taiho Pharmaceutical Co., Ltd., priority 2013, dated 2015)

How the values were obtained:
human Aurora A = human Aurora A (Homo sapiens (Human), UniProt O14965); test: Measurement of Aurora A inhibitory activity (IMAP fluorescence polarization kinase assay); format: biochemical; settings: ATP 5 μM, 25° C., 50 minutes
Description: (§1) The inhibitory activities of a test compound against Aurora A and Aurora B were measured according to the following method.
Complementary DNA of human Aurora A was fused with a histidine tag at the amino terminal, inserted into an expression vector and highly expressed in Escherichia coli BL21-CodonPlus (DE3)-RIL strain. After Escherichia coli was recovered and lysed, human Aurora A protein fused with a histidine tag was allowed to bind to a nickel chelate column and eluted by imidazole from the column. An active fraction was desalted by a desalting column to obtain purified enzyme.
In measuring inhibitory activity of the compound, first, the test compound was serially diluted by dimethylsulfoxide (DMSO). […] To the mixture, IMAP (registered trade mark) Progressive Binding Reagent diluted 500× with IMAP (registered trade mark) Progressive Binding Buffer A (manufactured by Molecular Devices) was added to terminate the kinase reaction. […] Based on the obtained fluorescence polarization degree, the amount of phosphorylation reaction was obtained.

human Aurora B = human Aurora B (Homo sapiens (Human), UniProt Q96GD4); test: Measurement of Aurora B kinase activity; format: biochemical; settings: ATP 40 μM, 60 minutes
Description: as §1
The concentration of the compound at which 50% of the phosphorylation reaction was suppressed was defined as IC50 value (nM).

[1] = Evaluation of oral absorption property; format: in vivo, BALE/cA mice; settings: oral administration in 0.5% HPMC, plasma 0.5-6 hours, LCMS
Description: A test compound was suspended or dissolved in 0.5% HPMC and orally administered to BALE/cA mice. At the time points of 0.5, 1, 2, 4 and 6 hours after oral administration, blood was sampled from the back of the eye to obtain blood plasma. The concentration of the compound in the obtained blood plasma was measured by LCMS and evaluated for oral absorption property.

[2] = tested on: human-derived uterus cancer cell strain HeLa-luc; settings: Group 1: paclitaxel 10 mg/kg iv day 1 alone, 5 rats
Description: Cells (1×10^7) of human-derived uterus cancer cell strain HeLa-luc (manufactured by PerkinElmer Co., Ltd.) having a luciferase gene introduced therein were subcutaneously grafted to the right abdomens of nude rats. At the time the volume of a tumor developed from grafted cells reached about 200 mm^3, the rats were divided into groups each consisting of 5 rats according to stratified randomization such that each group had almost the same tumor volume. […] To Group 2 and 3, paclitaxel was administered and, on the next day, Compound 1 (30 mg/kg) was orally administered twice per day for one day or 4 days (sequential administration, see FIG. 1 (A), Sequential treatment). To the rats of Group 4 and 5, paclitaxel was administered and, on the same day, Compound 1 (30 mg/kg) was orally administered twice per day for 2 days or 4 days (concurrent administration, see FIG. 1 (B), Concurrent treatment). Compound 1 was suspended or dissolved in 0.5% (w/v) hydroxypropyl methyl cellulose (HPMC). Paclitaxel was dissolved in Cremophor EL and anhydrous ethanol, diluted with physiological saline so as to obtain a predetermined concentration and put in use.
The presence or absence of a therapeutic effect was determined by measuring the major axis and minor axis of a tumor with time and obtaining a tumor volume (TV), relative tumor volume (RTV) and T/C (%) value (average relative tumor volume ratio of the treatment group to the control group) on day 10 after initiation of administration according to the following expressions. Tumor volume (TV)={(major axis)×(minor axis)^2}/2 Relative tumor volume (RTVn) on measurement day (n)=TVn/TV1 T/C(%)={(average RTVn of treatment group)/(average RTVn of control group)}×100
TV1 represents tumor volume at the administration initiation time
Furthermore, an individual in which a tumor disappeared was specified as CR (complete remission/complete response) and the number of cases was obtained.

human Aurora A, sequence (O14965 whole entry): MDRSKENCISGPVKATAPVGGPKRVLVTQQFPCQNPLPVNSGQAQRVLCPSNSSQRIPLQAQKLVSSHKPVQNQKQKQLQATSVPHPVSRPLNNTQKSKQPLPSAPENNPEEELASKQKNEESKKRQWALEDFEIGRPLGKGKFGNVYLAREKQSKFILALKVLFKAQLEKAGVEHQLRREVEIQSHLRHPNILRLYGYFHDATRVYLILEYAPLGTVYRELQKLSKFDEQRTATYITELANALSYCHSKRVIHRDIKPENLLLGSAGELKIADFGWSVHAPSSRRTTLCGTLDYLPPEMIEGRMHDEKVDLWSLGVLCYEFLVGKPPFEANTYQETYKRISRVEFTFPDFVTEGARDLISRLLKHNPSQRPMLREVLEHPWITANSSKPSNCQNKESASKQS
human Aurora B, sequence (Q96GD4 whole entry): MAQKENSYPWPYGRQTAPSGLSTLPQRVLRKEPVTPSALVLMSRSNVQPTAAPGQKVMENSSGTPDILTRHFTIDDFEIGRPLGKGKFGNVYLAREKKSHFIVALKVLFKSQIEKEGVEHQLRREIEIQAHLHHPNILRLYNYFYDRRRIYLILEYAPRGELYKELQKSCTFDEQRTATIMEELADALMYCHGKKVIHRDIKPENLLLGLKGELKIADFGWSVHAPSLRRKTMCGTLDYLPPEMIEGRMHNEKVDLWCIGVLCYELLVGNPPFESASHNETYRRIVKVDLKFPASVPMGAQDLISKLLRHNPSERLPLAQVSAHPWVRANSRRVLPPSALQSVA
human Aurora B, sequence (Q9NQS7 803-916 partner): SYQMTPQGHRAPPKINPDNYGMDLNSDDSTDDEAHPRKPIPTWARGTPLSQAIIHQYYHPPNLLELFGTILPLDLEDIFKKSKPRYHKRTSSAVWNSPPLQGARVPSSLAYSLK

SMILES	IC50 (human Aurora A) [nM]	IC50 (human Aurora B) [nM]	oral absorption property (concentration in blood plasma) [1]	number of CR cases [2]
Cc1cc(Nc2nc(CC3(C(=O)O)CCN(C(=O)c4cccc(C(F)(F)F)c4F)CC3)ccc2F)n[nH]1 [Production Example 2, 1-(2-fluoro-3-trifluoromethylbenzoyl)-4-((5-fluoro-6-(5-methyl-1H-pyrazol-3-ylamino)pyridin-2-yl)methyl)piperidine-4-carboxylic acid]	0.5	340	–	–
COc1ccc(CC2(C(=O)O)CCN(C(=O)c3cccc(Cl)c3F)CC2)nc1Nc1cc(C)[nH]n1 [Production Example 11, 1-(3-chloro-2-fluorobenzoyl)-4-((5-methoxy-6-(5-methyl-1H-pyrazol-3-ylamino)pyridin-2-yl)methyl)piperidine-4-carboxylic acid]	0.6	930	satisfactory oral absorption property	–
Cc1cc(Nc2nc(CC3(C(=O)O)CCN(C(=O)c4cccc(Cl)c4F)CC3)ccc2Cl)n[nH]1 [Production Example 12, 1-(3-chloro-2-fluorobenzoyl)-4-((5-chloro-6-(5-methyl-1H-pyrazol-3-ylamino)pyridin-2-yl)methyl)piperidine-4-carboxylic acid]	0.4	260	satisfactory oral absorption property	–
Cc1cc(Nc2nc(CC3(C(=O)O)CCN(C(=O)c4cccc(Cl)c4F)CC3)ccc2F)n[nH]1 [Production Example 13, 1-(3-chloro-2-fluorobenzoyl)-4-((5-fluoro-6-(5-methyl-1H-pyrazol-3-ylamino)pyridin-2-yl)methyl)piperidine-4-carboxylic acid]	0.4	180	satisfactory oral absorption property	–
CNC(=O)C1(Cc2ccc(F)c(Nc3cc(C)[nH]n3)n2)CCN(C(=O)c2cccc(Cl)c2F)CC1 [Production Example 14, 1-(3-chloro-2-fluorobenzoyl)-4-((5-fluoro-6-(5-methyl-1H-pyrazol-3-ylamino)pyridin-2-yl)methyl)-N-methylpiperidine-4-carboxyamide]	0.9	460	–	–
Cc1cc(Nc2nc(CC3(C(=O)NC4CC4)CCN(C(=O)c4cccc(Cl)c4F)CC3)ccc2F)n[nH]1 [Production Example 17, 1-(3-chloro-2-fluorobenzoyl)-N-cyclopropy1-4-((5-fluoro-6-(5-methyl-1H-pyrazol-3-ylamino)pyridin-2-yl)methyl)piperidine-4-carboxyamide]	0.9	900	–	–
Cc1cc(Nc2nc(CC3(C(=O)N4CCC4)CCN(C(=O)c4cccc(Cl)c4F)CC3)ccc2F)n[nH]1 [Production Example 19, azetidin-1-yl(1-(3-chloro-2-fluorobenzoyl)-4-((5-fluoro-6-(5-methyl-1H-pyrazol-3-ylamino)pyridin-2-yl)methyl)piperidine-4-yl)methanone]	1	880	–	–
Cc1cc(Nc2nc(CC3(c4noc(C)n4)CCN(C(=O)c4cccc(Cl)c4F)CC3)ccc2F)n[nH]1 [Production Example 22, (3-chloro-2-fluorophenyl)(4-((5-fluoro-6-(5-methyl-1H-pyrazol-3-ylamino)pyridin-2-yl)methyl)-4-(5-methyl-1,2,4-oxadiazol-3-yl)piperidine-1-yl)methanone]	0.7	380	satisfactory oral absorption property	–
Cc1cc(Nc2nc(CC3(c4ncon4)CCN(C(=O)c4cccc(Cl)c4F)CC3)ccc2F)n[nH]1 [Production Example 24, (3-chloro-2-fluorophenyl)(4-((5-fluoro-6-(5-methyl-1H-pyrazol-3-ylamino)pyridin-2-yl)methyl)-4-(1,2,4-oxadiazol-3-yl)piperidine-1-yl)methanone]	0.5	190	–	–
Cc1cc(Nc2nc(CC3(c4nnc(C)o4)CCN(C(=O)c4cccc(Cl)c4F)CC3)ccc2F)n[nH]1 [Production Example 28, (3-chloro-2-fluorophenyl)(4-((5-fluoro-6-(5-methyl-1H-pyrazol-3-ylamino)pyridin-2-yl)methyl)-4-(5-methyl-1,3,4-oxadiazol-2-yl)piperidine-1-yl)methanone]	0.7	450	–	–
Cc1noc(C2(Cc3ccc(F)c(Nc4cc(C)[nH]n4)n3)CCN(C(=O)c3cccc(Cl)c3F)CC2)n1 [Production Example 29, (3-chloro-2-fluorophenyl)(4-((5-fluoro-6-(5-methyl-1H-pyrazol-3-ylamino)pyridin-2-yl)methyl)-4-(3-methyl-1,2,4-oxadiazol-5-yl)piperidine-1-yl)methanone]	0.8	390	–	–
CC(=O)O[C@H]1C(=O)[C@@]2(C)[C@H]([C@H](OC(=O)c3ccccc3)[C@]3(O)C[C@H](OC(=O)[C@H](O)[C@@H](NC(=O)c4ccccc4)c4ccccc4)C(C)=C1C3(C)C)[C@]1(OC(C)=O)CO[C@@H]1C[C@@H]2O [paclitaxel, reference compound]	–	–	–	no CR cases
